{
  "source": "paper PMC11974063",
  "about": "(BMC Medicine, 2025)",
  "biological_target": "Influenza HA2 protein",
  "format": "binding",
  "data": [
    {"compound": "COCCOC(=O)C1=C(C)NC(C)=C(C(=O)OC/C=C/c2ccccc2)C1c1cccc([N+](=O)[O-])c1", "note": "(stereo not shown) [cilnidipine]", "values": [
      {"measurement": "Kd", "result": 32, "unit": "nM"}
    ]}
  ]
}
